Test results published in patent US20250325467A1, “COMPOSITIONS FOR PREVENTING OR TREATING SKIN AGING” (ESTETRA SRL, priority 2021, published 2025).

Columns and labels:
[1] = Tissue distribution (QWBA) of [^14C]-estetrol after a single oral dose in non-pigmented rats; format: in vivo, rat; conditions: for Concentration of radioactivity, Skin: Non-pigmented / Tissue:Blood ratio, Skin: Non-pigmented: non-pigmented rats, single oral 15 mg/kg
Protocol: Times for analysis were: 0.5, 1, 2, 5, 8, 24 and 48 hours
Distribution of radioactivity in tissues was determined and quantified using the Fuji FLA-5100 fluorescent image analyser and associated Tina and SeeScan software. Tissue concentrations of radioactivity were determined using calibrated autoradiographic microscales produced by GE Healthcare. A standard curve was produced using the microscales from which tissue concentrations of radioactivity were determined (nCi/g). These values were then converted into pg equivalents/g using the specific activity of the dose formulation.
Radioactivity concentrations are also reported as […] equivalents/g.

[2] = as above; format: in vivo; conditions: single oral 15 mg/kg, 3 hour (Rat 08F)
[3] = Tissue distribution (QWBA) of [^14C]-estetrol after a single oral dose in partially pigmented rats; conditions: for Concentration of radioactivity, Skin: Non-pigmented / Concentration of radioactivity, Skin: Pigmented / Tissue:Blood ratio, Skin: Non-pigmented / Tissue:Blood ratio, Skin: Pigmented / Total amount of radioactivity, Skin (non-pigmented) / Total amount of radioactivity, Skin (pigmented): single oral 15 mg/kg
Protocol: Tissue distribution was determined in female rats (partially pigmented and non-pigmented) using [^14C]-estetrol.
A group of six female Lister Hooded rats each received a single oral dose of [^14C]-estetrol. At each selected time (see below) one animal was killed (by overdose of CO2) followed by immediate snap freezing in hexane/solid CO2. The carcasses were retained for examination of the tissue distribution of radioactivity using the technique of quantitative whole body autoradiography (QWBA).
Times for analysis were: (0.5, 8, and 24 hours, 7, 14 and 35 days)
Frozen carcasses were subjected to whole-body autoradiography.
Where concentrations are reported, radioactivity was assumed to be associated with [^14C]-estetrol or any metabolic products derived from [^14C]-estetrol. The specific activities of the dosed test compounds were used for the calculation of concentrations in all cases. Recoveries of radioactivity are reported as percentage of administered radioactivity (% dose). Radioactivity concentrations are also reported as pg equivalents/g.

[4] = partially pigmented rats, 0.5 hours
[5] = partially pigmented rats, 8 hours
[6] = partially pigmented rats, 24 hours
[7] = partially pigmented rats, 7 days
[8] = partially pigmented rats, 14 days
[9] = partially pigmented rats, 35 days

[^14C]-estetrol
concentration of radioactivity, liver (greatest concentration) ([1]; female non-pigmented rats, single oral dose, 0.5 hours): 12.5 microgram equivalents/gram
Concentration of radioactivity, Skin: Non-pigmented ([1]; 0.5 hours): 2.59 microgram equivalents/gram
Tissue:Blood ratio, Skin: Non-pigmented ([1]; 0.5 hours): 1.05
Concentration of radioactivity, Skin: Non-pigmented ([1]; 1 hour): 0.771 microgram equivalents/gram
Concentration of radioactivity, Skin: Non-pigmented ([1]; 2 hours): 0.465 microgram equivalents/gram
Tissue:Blood ratio, Skin: Non-pigmented ([1]; 2 hours): 1.72
Concentration of radioactivity, Skin: Non-pigmented ([1]; 5 hours): 0.189 microgram equivalents/gram
Tissue:Blood ratio, Skin: Non-pigmented ([1]; 5 hours): 1.66
Concentration of radioactivity, Skin: Non-pigmented ([1]; 8 hours): 0.361 microgram equivalents/gram
Tissue:Blood ratio, Skin: Non-pigmented ([1]; 8 hours): 1.77
Concentration of radioactivity, Skin: Non-pigmented ([1]; 24 hours): BLQ
Concentration of radioactivity, Skin: Non-pigmented ([1]; 48 hours): BLQ
Tissue:Blood ratio, Skin: Non-pigmented [2]: 0.99
concentration of radioactivity, liver (greatest concentration) ([3]; female partially pigmented rats, single oral dose, 0.5 hours): 13.7 μg equivalents/g
Concentration of radioactivity, Skin: Non-pigmented [3, 4]: 1.89 microgram equivalents/gram
Concentration of radioactivity, Skin: Pigmented [3, 4]: 2.85 microgram equivalents/gram
Tissue:Blood ratio, Skin: Non-pigmented [3, 4]: 0.71
Tissue:Blood ratio, Skin: Pigmented [3, 4]: 1.07
Total amount of radioactivity, Skin (non-pigmented) [3, 4]: 1.136 % dose administered/tissue
Total amount of radioactivity, Skin (pigmented) [3, 4]: 1.714 % dose administered/tissue
Concentration of radioactivity, Skin: Non-pigmented [3, 5]: 0.090 microgram equivalents/gram
Concentration of radioactivity, Skin: Pigmented [3, 5]: 0.161 microgram equivalents/gram
Tissue:Blood ratio, Skin: Non-pigmented [3, 5]: 0.56
Tissue:Blood ratio, Skin: Pigmented [3, 5]: 1.01
Total amount of radioactivity, Skin (non-pigmented) [3, 5]: 0.059 % dose administered/tissue
Total amount of radioactivity, Skin (pigmented) [3, 5]: 0.099 % dose administered/tissue
Concentration of radioactivity, Skin: Non-pigmented [3, 6]: BLQ
Concentration of radioactivity, Skin: Pigmented [3, 6]: 0.113 microgram equivalents/gram
Total amount of radioactivity, Skin (non-pigmented) [3, 6]: <0.041 % dose administered/tissue
Total amount of radioactivity, Skin (pigmented) [3, 6]: 0.061 % dose administered/tissue
Concentration of radioactivity, Skin: Non-pigmented [3, 7]: BLQ
Concentration of radioactivity, Skin: Pigmented [3, 7]: BLQ
Total amount of radioactivity, Skin (non-pigmented) [3, 7]: <0.043 % dose administered/tissue
Total amount of radioactivity, Skin (pigmented) [3, 7]: <0.043 % dose administered/tissue
Concentration of radioactivity, Skin: Non-pigmented [3, 8]: BLQ
Concentration of radioactivity, Skin: Pigmented [3, 8]: BLQ
Total amount of radioactivity, Skin (non-pigmented) [3, 8]: <0.038 % dose administered/tissue
Total amount of radioactivity, Skin (pigmented) [3, 8]: <0.038 % dose administered/tissue
Concentration of radioactivity, Skin: Non-pigmented [3, 9]: BLQ
Concentration of radioactivity, Skin: Pigmented [3, 9]: BLQ
Total amount of radioactivity, Skin (non-pigmented) [3, 9]: <0.041 % dose administered/tissue
Total amount of radioactivity, Skin (pigmented) [3, 9]: <0.041 % dose administered/tissue
concentration of radioactivity, liver ([3]; partially pigmented rats, single oral dose, 7 days after dosing): 0.410 μg equivalents/g
concentration of radioactivity, majority of tissues (BLQ) ([3]; partially pigmented rats, single oral dose, by 24 hours): < 0.076 μg equivalents/g
concentration of radioactivity, all analyzed tissues except liver, including uveal tract and pigmented skin ([3]; partially pigmented rats, single oral dose, by 7 days): at or below the limit of quantification
